How the values were obtained:
[1] = molecular target: T1, human recombinant caspase-2 (Homo sapiens, UniProt P42575); assay: in vitro caspase-2 inhibition activity (Ac-VDVAD-AMC fluorogenic substrate cleavage); type: biochemical; settings: for caspase-2 inhibition activity (in words), comparative compounds: compounds used for comparative purposes, structurally related to TRP601; for IC50: 30 minutes pre-incubation with inhibitors 0.001 to 2 μM, 200 μM Ac-VDVAD-AMC, read after 2 hours at 37° C., mean of three independent runs, read-out: IC50 (concentration which inhibits 50% of caspase activity)
T1 construct: purchased BIOMOL, Plymouth, Pa., USA
T1 sequence (P42575 170-325 limits assumed): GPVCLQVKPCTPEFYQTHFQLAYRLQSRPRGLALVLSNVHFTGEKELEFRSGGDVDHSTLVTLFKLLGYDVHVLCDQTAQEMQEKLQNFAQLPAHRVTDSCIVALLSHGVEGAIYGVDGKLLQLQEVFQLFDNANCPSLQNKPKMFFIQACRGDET
T1 sequence (P42575 348-452 limits assumed): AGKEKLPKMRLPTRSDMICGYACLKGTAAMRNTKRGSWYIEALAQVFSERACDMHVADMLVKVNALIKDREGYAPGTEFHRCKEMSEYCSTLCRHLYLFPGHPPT
Experimental: The in vitro caspase-2 inhibition activity of 2-quinolinylcarbonyl-(S)-Valinyl-(S)-Aspartyl (methyl ester)-(S)-Valinyl-(S)-Alanyl-(R,S)-Aspartyl (methyl ester) 2,3,5,6-tetrafluorophenyl ester (TRP 701) in comparison to other compounds was evaluated according to the following protocol. Samples of human recombinant caspase-2 (25-50U, BIOMOL, Plymouth, Pa., USA) were pre-incubated for 30 minutes with inhibitors (0.001 to 2 μM) in final 100 μl final assay buffer (50 mM HEPES, pH 7.4, 100 mM NaCI, 0.1% CHAPS, 10 mM DTT, 1 mM EDTA, 10% glycerol) and then mixed with 200 μM of the fluorogenic caspase substrates (BIOMOL) Ac-VDVAD-AMC. An IC50 value corresponding to the concentration which inhibis 50% of caspase activity was determined from the dose-response sigmoid curve using the steady-state fluorescence approach. The cleavage of AMC-based substrate by human recombinant caspase-2 was measured after 2 hours at 37° C. on a fluorescence microplate reader by monitoring emission at 510 nm upon excitation at 405 nm.
Curves are the mean of three independent runs.

[2] = molecular target: T1, human recombinant caspase-2; settings: disclosed in WO 2005/105829; cited from earlier work

Row | Molecule | caspase-2 inhibition activity (in words), comparative compounds [1] | caspase-2 selectivity (in words) [1] | IC50 [1] [nM] | caspase-2 selectivity (in words), background statement [2]
1 | CC(C)[C@H](NC(=O)c1ccc2ccccc2n1)C(=O)O [M3, 2-quinolinylcarbonyl-S-Valine] | inactive |  |  | 
2 | COC(=O)CC(NC(=O)[C@H](C)NC(=O)[C@@H](NC(=O)[C@H](CC(=O)OC)NC(=O)[C@@H](NC(=O)c1ccc2ccccc2n1)C(C)C)C(C)C)C(=O)COc1c(F)c(F)cc(F)c1F (mixture of isomers) [TRP 701, 5-(2,3,5,6-tetrafluoro-phenoxy)-3(R,S)-{2(S)-[2(S)-(3-methoxycarbonyl-2(S)-{3-methyl-2(S)-[(quinoline-2-carbonyl)-amino]-butyrylamino}-propionylamino)-3-methyl-butyrylamino]-propionylamino}-4-oxo-pentanoic acid methyl ester] |  | selective caspase-2 inhibitor | 60 to 90 | 
3 | quinoline-2-carbonyl-(S)-Val-(S)-Asp(OMe)-(S)-Val-(S)-Ala-(R,S)-Ala((R,S)-CH2OC6H3(2,6-F2)) [TRP 600] | inactive |  |  | 
4 | COC(=O)CC(NC(=O)[C@H](C)NC(=O)[C@@H](NC(=O)[C@H](CC(=O)OC)NC(=O)[C@@H](NC(=O)c1ccc2ccccc2n1)C(C)C)C(C)C)C(=O)COc1c(F)cccc1F (mixture of isomers) [TRP 601, 5-(2,6-difluoro-phenoxy)-3(R,S)-{2(S)-[2(S)-(3-methoxycarbonyl-2(S)-{3-methyl-2(S)-[(quinoline-2-carbonyl)-amino]butyrylamino}-propionylamino)-3-methyl-butyrylamino]-propionylamino}-4-oxo-pentanoic acid methyl ester] |  |  | 60 to 90 | selective caspase-2 inhibitor

Reference: patent US20120196892A1, “NOVEL CASPASE-2 INHIBITORS” (CHIESI FARMACEUTICI S.p.A., priority 2011, published 2012)
